Where two headings read alike, the source gives them in different places.
Experiments:
[1] = target: T1, human recombinant STK3 (MST2) (Homo sapiens, UniProt Q13188); experiment: radiometric kinase assay; type: biochemical
T1 sequence (Q13188 1-491 limits assumed): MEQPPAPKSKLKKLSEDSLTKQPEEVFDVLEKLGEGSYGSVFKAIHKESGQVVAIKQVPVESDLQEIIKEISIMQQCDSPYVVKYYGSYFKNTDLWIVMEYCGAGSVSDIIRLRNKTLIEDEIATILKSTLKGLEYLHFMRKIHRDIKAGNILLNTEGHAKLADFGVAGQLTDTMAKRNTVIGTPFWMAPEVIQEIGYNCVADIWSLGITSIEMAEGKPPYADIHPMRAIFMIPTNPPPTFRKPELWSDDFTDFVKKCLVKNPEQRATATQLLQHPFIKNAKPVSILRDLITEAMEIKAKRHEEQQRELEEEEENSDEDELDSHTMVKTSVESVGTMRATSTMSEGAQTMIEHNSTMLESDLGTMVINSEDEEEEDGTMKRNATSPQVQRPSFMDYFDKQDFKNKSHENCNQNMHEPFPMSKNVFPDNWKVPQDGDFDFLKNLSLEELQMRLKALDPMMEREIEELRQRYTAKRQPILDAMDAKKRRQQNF

[2] = target: T2, NanoLuc-STK3 (STK3-NanoBRET) (Homo sapiens, UniProt Q13188); experiment: NanoBRET tracer displacement in live cells; type: cell-based
T2 sequence (Q13188 1-491): T1 sequence (Q13188 1-491 limits assumed)

[3] = target: T1, human recombinant STK3 (MST2); conditions: inhibitor
human recombinant STK4 = target: T3, human recombinant STK4 (Homo sapiens, UniProt Q13043); conditions: inhibitor
T3 sequence (Q13043 1-487): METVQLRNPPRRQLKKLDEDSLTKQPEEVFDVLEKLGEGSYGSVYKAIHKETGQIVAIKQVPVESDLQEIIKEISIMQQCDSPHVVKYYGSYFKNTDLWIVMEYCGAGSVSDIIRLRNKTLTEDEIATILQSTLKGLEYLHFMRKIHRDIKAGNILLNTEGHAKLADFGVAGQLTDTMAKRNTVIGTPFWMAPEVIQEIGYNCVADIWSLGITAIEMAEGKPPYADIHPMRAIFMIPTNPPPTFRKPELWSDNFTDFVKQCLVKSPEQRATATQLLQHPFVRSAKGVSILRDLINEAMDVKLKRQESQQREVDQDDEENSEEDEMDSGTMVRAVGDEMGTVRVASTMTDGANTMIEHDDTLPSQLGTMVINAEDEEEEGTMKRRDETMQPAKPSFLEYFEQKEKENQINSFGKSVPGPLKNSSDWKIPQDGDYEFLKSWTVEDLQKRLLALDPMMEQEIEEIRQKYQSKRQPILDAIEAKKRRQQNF

[4] = target: human recombinant STK24 (aka MST3) (Homo sapiens, UniProt Q9Y6E0); conditions: inhibitor
human recombinant STK24 (aka MST3), sequence (Q9Y6E0 whole entry): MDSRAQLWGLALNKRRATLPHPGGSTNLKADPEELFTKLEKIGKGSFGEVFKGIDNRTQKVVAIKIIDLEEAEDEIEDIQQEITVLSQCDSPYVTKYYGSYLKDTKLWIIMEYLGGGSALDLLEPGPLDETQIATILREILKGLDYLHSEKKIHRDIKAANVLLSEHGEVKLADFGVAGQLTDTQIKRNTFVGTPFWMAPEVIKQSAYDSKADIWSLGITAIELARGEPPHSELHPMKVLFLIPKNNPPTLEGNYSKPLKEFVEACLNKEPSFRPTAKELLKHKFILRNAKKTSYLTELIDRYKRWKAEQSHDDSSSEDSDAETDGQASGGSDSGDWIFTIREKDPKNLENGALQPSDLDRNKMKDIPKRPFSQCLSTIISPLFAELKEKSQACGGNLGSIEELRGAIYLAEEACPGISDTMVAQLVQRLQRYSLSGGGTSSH

[5] = target: human recombinant STK26 (aka MST4) (Homo sapiens, UniProt Q9P289); conditions: inhibitor
human recombinant STK26 (aka MST4), sequence (Q9P289 2-416): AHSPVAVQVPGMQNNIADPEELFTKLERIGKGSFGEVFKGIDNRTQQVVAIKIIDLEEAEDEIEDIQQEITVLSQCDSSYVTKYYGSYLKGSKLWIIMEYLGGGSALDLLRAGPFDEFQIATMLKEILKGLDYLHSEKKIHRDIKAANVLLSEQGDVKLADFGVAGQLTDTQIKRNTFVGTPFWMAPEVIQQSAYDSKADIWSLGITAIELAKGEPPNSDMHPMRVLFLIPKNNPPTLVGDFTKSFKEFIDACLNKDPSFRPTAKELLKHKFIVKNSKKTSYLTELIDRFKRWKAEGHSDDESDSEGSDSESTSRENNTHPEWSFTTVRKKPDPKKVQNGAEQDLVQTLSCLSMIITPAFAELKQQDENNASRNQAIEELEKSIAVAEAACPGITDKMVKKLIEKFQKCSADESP

IC50 [2] [nM] | STK4 % activity remaining (1µM) (human recombinant STK4) [%] | MST3 % activity remaining (1µM) [4] [%] | MST4 % activity remaining (1µM) [5] [%] | SMILES | further results
 | 98 | 92 | 106 | CS(=O)(=O)N1CCN(C(=O)c2c[nH]c3ncc(C4CC4)nc23)CC1 [A9] | STK3 % activity remaining (1µM) [3]: 82%
> 10000 |  |  |  | CNS(=O)(=O)CCNC(=O)c1c[nH]c2ncc(C3CC3)nc12 [A11, UNC-BE4-033] | 
 | 36 | 60 | 71 | CNS(=O)(=O)CCNC(=O)c1c[nH]c2ncc(C3CC3)nc12 [A11] | STK3 % activity remaining (1µM) [3]: 89%
> 10000 |  |  |  | O=C(c1c[nH]c2ncc(C3CC3)nc12)N1CCOCC1 [A13, UNC-BE4-036] | 
 | 84 | 85 | 82 | O=C(c1c[nH]c2ncc(C3CC3)nc12)N1CCOCC1 [A13] | STK3 % activity remaining (1µM) [3]: 138%
4300 |  |  |  | CN(C)c1ncnc2[nH]cc(-c3cccc(C#N)c3)c12 [B1, UNC-SOB-5-16] | IC50 [1]: 113 nM
 | 14 | 15 | 40 | CN1C(=O)c2sccc2N(C)c2nc(Nc3ccc(S(N)(=O)=O)cc3)ncc21 [XMU-MP-1] | 

Further lines, the compound ahead of its results:

SMILES | IC50 [2] [nM] | STK4 % activity remaining (1µM) (human recombinant STK4) [%] | MST3 % activity remaining (1µM) [4] [%] | MST4 % activity remaining (1µM) [5] [%] | further results
C[C@H](NC(=O)c1c[nH]c2ncc(C3CC3)nc12)C(C)(C)O [A2, UNC-BE4-018] | 9200 |  |  |  | IC50 [1]: 195 nM
C[C@H](NC(=O)c1c[nH]c2ncc(C3CC3)nc12)C(C)(C)O [A2] |  | 7 | 12 | 54 | STK3 % activity remaining (1µM) [3]: 15%
C[C@H](NC(=O)c1c[nH]c2ncc(-c3ccccc3)nc12)C(C)(C)C [A3, UNC-BE4-035] | 2000 |  |  |  | IC50 [1]: 7 nM
C[C@H](NC(=O)c1c[nH]c2ncc(-c3ccccc3)nc12)C(C)(C)C [A3] |  | 2 | 6 | 27 | 
C[C@H](NC(=O)c1c[nH]c2ncc(-c3ccccc3)nc12)C(C)(C)O [A4, UNC-BE4-36-1] | 2100 |  |  |  | IC50 [1]: 124 nM
C[C@H](NC(=O)c1c[nH]c2ncc(-c3ccccc3)nc12)C(C)(C)O [A4] |  | 4 | 9 | 51 | 
COc1cccc([C@H](C)NC(=O)c2c[nH]c3ncc(-c4ccccc4)nc23)c1 [A5, UNC-BE4-040-1] |  |  |  |  | IC50 ([1]; ATP at Km, myelin basic protein substrate): 391 nM; IC50 ([2]; read-out: NB IC50, NanoBRET Tracer K10 at […], live HEK-293 cells): > 10000 nM
COc1cccc([C@H](C)NC(=O)c2c[nH]c3ncc(-c4ccccc4)nc23)c1 [A5] |  | 39 | 21 | 74 | 
COCCCNC(=O)c1c[nH]c2ncc(C3CC3)nc12 [A6, UNC-BE4-032] | > 10000 |  |  |  | 
COCCCNC(=O)c1c[nH]c2ncc(C3CC3)nc12 [A6] |  | 26 | 31 | 74 | STK3 % activity remaining (1µM) [3]: 44%
CS(=O)(=O)N1CCN(C(=O)c2c[nH]c3ncc(C4CC4)nc23)CC1 [A9, UNC-BE4-031] | > 10000 |  |  |  | 
